From US20160039825A1 (BIOGEN MA INC., priority 2013, published 2016)

Target: T1, Human ATX protein (Homo sapiens, UniProt Q13822)
T1 construct: made in house
Test: Autotaxin (ATX) assay, FRET with FS-3 substrate
Assay type: biochemical
Conditions: upper bound bins (no greater than 100, 250 or 500 nM); FS-3 2 μM, ATX 1.0 μg/mL
Method in brief: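 Hydrolysis of the FRET substrate FS-3 (2 μM final) unquenches fluorescein, read at excitation 485 nm and emission 538 nm after 2 h at room temperature, protected from light. Purified human ATX (1.0 μg/mL) and compound were first incubated for 30 min in pH 7.4 Tris/salt buffer containing 1 mg/mL fatty acid-free BSA.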

SMILES | IC50 [nM]
O=C(OCc1cc(C(F)(F)F)cc(C(F)(F)F)c1)N1CCCn2nc(CN[C@H]3CC[C@H](C(=O)O)CC3)cc2C1 [Example 289] | ≤ 250
CN1CCN(Cc2cc3n(n2)CCCN(C(=O)OCc2cc(C(F)(F)F)cc(C(F)(F)F)c2)C3)CC1 [Example 290, 3,5-bis(trifluoromethyl)benzyl 2-((4-methylpiperazin-1-yl)methyl)-7,8-dihydro-4H-pyrazolo[1,5-a][1,4]diazepine-5(6H)-carboxylate] | ≤ 500
O=C(OCc1cc(C(F)(F)F)cc(C(F)(F)F)c1)N1CCCn2nc(CN3CCCCC3)cc2C1 [Example 291] | ≤ 250
O=C(OCc1cc(C(F)(F)F)cc(C(F)(F)F)c1)N1CCCn2nc(CN3C4CCCC3CC4)cc2C1 [Example 292] | ≤ 250
O=C(OCc1cc(C(F)(F)F)cc(C(F)(F)F)c1)N1CCCn2nc(CN3C4CCCC3CCC4)cc2C1 [Example 293] | ≤ 100
CNCc1cc2n(n1)CCCN(C(=O)OCc1cc(C(F)(F)F)cc(C(F)(F)F)c1)C2 [Example 294] | ≤ 500
O=C(O)C1CC2CCC(C1)N2Cc1cc2n(n1)CCCN(C(=O)OCc1cc(C(F)(F)F)cc(C(F)(F)F)c1)C2 (stereo not drawn) [Example 296] | ≤ 250
O=C(O)C1CC2CCCC(C1)N2Cc1cc2n(n1)CCCN(C(=O)OCc1cc(C(F)(F)F)cc(C(F)(F)F)c1)C2 (stereo not drawn) [Example 297] | ≤ 250
O=C(OCc1cc(C(F)(F)F)cc(C(F)(F)F)c1)N1CCCn2nc(C(=O)N3CCN(CCO)CC3)cc2C1 [Example 298, 3,5-bis(trifluoromethyl)benzyl 2-(4-(2-hydroxyethyl)piperazine-1-carbonyl)-7,8-dihydro-4H-pyrazolo[1,5-a][1,4]diazepine-5(6H)-carboxylate] | ≤ 100
CS(=O)(=O)NC(=O)c1cc2n(n1)CCCN(C(=O)OCc1cc(C(F)(F)F)cc(C(F)(F)F)c1)C2 [Example 299, 3,5-bis(trifluoromethyl)benzyl 2-((methylsulfonyl)carbamoyl)-7,8-dihydro-4H-pyrazolo[1,5-a][1,4]diazepine-5(6H)-carboxylate] | ≤ 100
NS(=O)(=O)c1cc2n(n1)CCCN(C(=O)OCc1cc(C(F)(F)F)cc(C(F)(F)F)c1)C2 [Example 301, 3,5-bis(trifluoromethyl)benzyl 2-sulfamoyl-7,8-dihydro-4H-pyrazolo[1,5-a][1,4]diazepine-5(6H)-carboxylate] | ≤ 250
CN(C)S(=O)(=O)c1cc2n(n1)CCCN(C(=O)OCc1cc(C(F)(F)F)cc(C(F)(F)F)c1)C2 [Example 302, 3,5-bis(trifluoromethyl)benzyl 2-(N,N-dimethylsulfamoyl)-7,8-dihydro-4H-pyrazolo[1,5-a][1,4]diazepine-5(6H)-carboxylate] | ≤ 100
O=C(OCc1cc(C(F)(F)F)cc(C(F)(F)F)c1)N1CCCn2nc(S(=O)(=O)N3CCCCC3)cc2C1 [Example 304] | ≤ 100
O=C(OCc1cc(C(F)(F)F)cc(C(F)(F)F)c1)N1CCCn2nc(S(=O)(=O)N3C4CCCC3CC4)cc2C1 [Example 305] | ≤ 100
O=C(OCc1cc(C(F)(F)F)cc(C(F)(F)F)c1)N1CCCn2nc(S(=O)(=O)N3C4CCCC3CCC4)cc2C1 [Example 306] | ≤ 100
CN1CCN(S(=O)(=O)c2cc3n(n2)CCCN(C(=O)OCc2cc(C(F)(F)F)cc(C(F)(F)F)c2)C3)CC1 [Example 308] | ≤ 100
O=C(OCc1cc(C(F)(F)F)cc(C(F)(F)F)c1)N1CCCn2nc(NC3CCNCC3)cc2C1 [Example 313, 3,5-bis(trifluoromethyl)benzyl 2-(piperidin-4-ylamino)-7,8-dihydro-4H-pyrazolo[1,5-a][1,4]diazepine-5(6H)-carboxylate] | ≤ 250
CC(C)C1CC(Nc2cc3n(n2)CCCN(C(=O)OCc2cc(C(F)(F)F)cc(C(F)(F)F)c2)C3)CCN1 (stereo not drawn) [Example 314] | ≤ 100
CC1CC(Nc2cc3n(n2)CCCN(C(=O)OCc2cc(C(F)(F)F)cc(C(F)(F)F)c2)C3)CCN1 (stereo not drawn) [Example 315] | ≤ 100
O=C(OCc1cc(C(F)(F)F)cc(C(F)(F)F)c1)N1CCCn2nc(NC3CC4CCCC(C3)N4)cc2C1 (stereo not drawn) [Example 316] | ≤ 100
O=C(OCc1cc(C(F)(F)F)cc(C(F)(F)F)c1)N1CCCn2nc(NC3CCCNC3)cc2C1 (stereo not drawn) [Example 317] | ≤ 250
O=C(OCc1cc(C(F)(F)F)cc(C(F)(F)F)c1)N1CCCn2nc(NC3CC4CCC(C3)N4)cc2C1 (stereo not drawn) [Example 318] | ≤ 100
CC(C)(C)C1CC(Nc2cc3n(n2)CCCN(C(=O)OCc2cc(C(F)(F)F)cc(C(F)(F)F)c2)C3)CCN1 (stereo not drawn) [Example 319] | ≤ 100
CC1(C)CC(Nc2cc3n(n2)CCCN(C(=O)OCc2cc(C(F)(F)F)cc(C(F)(F)F)c2)C3)CCN1 (stereo not drawn) [Example 320] | ≤ 100
CC1CC(Nc2cc3n(n2)CCCN(C(=O)OCc2cc(C(F)(F)F)cc(C(F)(F)F)c2)C3)CC(C)N1 (stereo not drawn) [Example 322] | ≤ 100
CCC1CC(Nc2cc3n(n2)CCCN(C(=O)OCc2cc(C(F)(F)F)cc(C(F)(F)F)c2)C3)CCN1 (stereo not drawn) [Example 323] | ≤ 100
O=C(OCc1cc(C(F)(F)F)cc(C(F)(F)F)c1)N1CCCn2nc(NC3CCCCNC3)cc2C1 (stereo not drawn) [Example 326] | ≤ 100

SMILES | IC50 [nM]
O=C(OCc1cc(C(F)(F)F)cc(C(F)(F)F)c1)N1CCCn2nc(N3CCCCC3=O)cc2C1 [Example 328, 3,5-bis(trifluoromethyl)benzyl 2-(2-oxopiperidin-1-yl)-7,8-dihydro-4H-pyrazolo[1,5-a][1,4]diazepine-5(6H)-carboxylate] | ≤ 100
CC(=O)Nc1cc2n(n1)CCCN(C(=O)OCc1cc(C(F)(F)F)cc(C(F)(F)F)c1)C2 [Example 337, 3,5-bis(trifluoromethyl)benzyl 2-acetamido-7,8-dihydro-4H-pyrazolo[1,5-a][1,4]diazepine-5(6H)-carboxylate] | ≤ 100
CN1CCN(c2cc3n(n2)CCCN(C(=O)OCc2cc(C(F)(F)F)cc(C(F)(F)F)c2)C3)CC1 [Example 338, 3,5-bis(trifluoromethyl)benzyl 2-(4-methylpiperazin-1-yl)-7,8-dihydro-4H-pyrazolo[1,5-a][1,4]diazepine-5(6H)-carboxylate] | ≤ 100
O=C(OCc1cc(C(F)(F)F)cc(C(F)(F)F)c1)N1CCCn2nc(N3CCNCC3)cc2C1 [Example 339] | ≤ 250
CC1(C)CN(c2cc3n(n2)CCCN(C(=O)OCc2cc(C(F)(F)F)cc(C(F)(F)F)c2)C3)CCN1 [Example 340] | ≤ 100
CCC1CN(c2cc3n(n2)CCCN(C(=O)OCc2cc(C(F)(F)F)cc(C(F)(F)F)c2)C3)CCN1 (stereo not drawn) [Example 341] | ≤ 100
O=C(OCc1cc(C(F)(F)F)cc(C(F)(F)F)c1)N1CCCn2nc(N3CCCNCC3)cc2C1 [Example 342] | ≤ 100
CC1CN(c2cc3n(n2)CCCN(C(=O)OCc2cc(C(F)(F)F)cc(C(F)(F)F)c2)C3)CCN1 (stereo not drawn) [Example 343] | ≤ 100
O=C(OCc1cc(C(F)(F)F)cc(C(F)(F)F)c1)N1CCCn2nc(N3CC4CCC(C3)N4)cc2C1 [Example 344] | ≤ 250
CC1CN(c2cc3n(n2)CCCN(C(=O)OCc2cc(C(F)(F)F)cc(C(F)(F)F)c2)C3)CC(C)N1 (stereo not drawn) [Example 345] | ≤ 100
O=C(OCc1cc(C(F)(F)F)cc(C(F)(F)F)c1)N1CCCn2nc(N3CCN4CCC[C@H]4C3)cc2C1 [Example 346] | ≤ 100
O=C(OCc1cc(C(F)(F)F)cc(C(F)(F)F)c1)N1CCCn2nc(N3CCN4CCC[C@@H]4C3)cc2C1 [Example 347] | ≤ 100
O=C(OCc1cc(C(F)(F)F)cc(C(F)(F)F)c1)N1CCCn2nc(N3CCNC4(CC4)C3)cc2C1 [Example 348] | ≤ 100
CN1CC2CN(c3cc4n(n3)CCCN(C(=O)OCc3cc(C(F)(F)F)cc(C(F)(F)F)c3)C4)CC2C1 (stereo not drawn) [Example 349] | ≤ 100
CCN1CC2CN(c3cc4n(n3)CCCN(C(=O)OCc3cc(C(F)(F)F)cc(C(F)(F)F)c3)C4)CC2C1 (stereo not drawn) [Example 350] | ≤ 100
O=C(OCc1cc(C(F)(F)F)cc(C(F)(F)F)c1)N1CCCn2nc(N3CC4CNCC4C3)cc2C1 (stereo not drawn) [Example 351] | ≤ 100
CN1CCC(Nc2cc3n(n2)CCCN(C(=O)OCc2cc(C(F)(F)F)cc(C(F)(F)F)c2)C3)CC1 [Example 352, 3,5-bis(trifluoromethyl)benzyl 2-((1-methylpiperidin-4-yl)amino)-7,8-dihydro-4H-pyrazolo[1,5-a][1,4]diazepine-5(6H)-carboxylate] | ≤ 250
CN1CCN(c2cc3n(n2)CCCN(C(=O)OCc2cc(C(F)(F)F)cc(C(F)(F)F)c2)C3)CC12CC2 [Example 353] | ≤ 100
CCN1CCN(c2cc3n(n2)CCCN(C(=O)OCc2cc(C(F)(F)F)cc(C(F)(F)F)c2)C3)CC1 [Example 354] | ≤ 100
CN1CCCN(c2cc3n(n2)CCCN(C(=O)OCc2cc(C(F)(F)F)cc(C(F)(F)F)c2)C3)CC1 [Example 355] | ≤ 100
CC(C)N1CCN(c2cc3n(n2)CCCN(C(=O)OCc2cc(C(F)(F)F)cc(C(F)(F)F)c2)C3)CC1 [Example 356] | ≤ 100
CCCN1CCN(c2cc3n(n2)CCCN(C(=O)OCc2cc(C(F)(F)F)cc(C(F)(F)F)c2)C3)CC1 [Example 357] | ≤ 100
O=C(OCc1cc(C(F)(F)F)cc(C(F)(F)F)c1)N1CCCn2nc(N3CCN(CCO)CC3)cc2C1 [Example 358] | ≤ 100
O=C(OCc1cc(C(F)(F)F)cc(C(F)(F)F)c1)N1CCCn2nc(N3CCC4NCCC43)cc2C1 (stereo not drawn) [Example 359] | ≤ 100
CN1CCC2C1CCN2c1cc2n(n1)CCCN(C(=O)OCc1cc(C(F)(F)F)cc(C(F)(F)F)c1)C2 (stereo not drawn) [Example 360] | ≤ 100
CC(Nc1cc2n(n1)CCCN(C(=O)OCc1cc(C(F)(F)F)cc(C(F)(F)F)c1)C2)C(=O)O (stereo not drawn) [Example 361, 2-((5-(((3,5-bis(trifluoromethyl)benzyl)oxy)carbonyl)-5,6,7,8-tetra-hydro-4H-pyrazolo[1,5-a][1,4]diazepin-2-yl)amino)propanoic acid] | ≤ 250
CCC(Nc1cc2n(n1)CCCN(C(=O)OCc1cc(C(F)(F)F)cc(C(F)(F)F)c1)C2)C(=O)O (stereo not drawn) [Example 362] | ≤ 100
